The subject of series [1] is Staphylococcus epidermidis H 6966/08. The series is described as follows: Antibacterial microdilution broth MIC, S. epidermidis. It counts as cell-based. As to conditions: 48 h incubation, read-out: MIC SE 48 h. On the technique in general: Dilution methods test growth across graded concentrations, often in twofold steps.
The test system of series [2] is Staphylococcus aureus CCM 4516/08. The series is described as follows: Antibacterial microdilution broth MIC, S. aureus. It counts as cell-based.
Series [3] deals with Pseudomonas aeruginosa CCM 1961. The series is described as follows: Antibacterial microdilution broth MIC, P. aeruginosa. It counts as cell-based. As to conditions: 48 h incubation, read-out: MIC PA 48 h.
Series [4] relates to ESBL-positive Klebsiella pneumoniae J 14368/08.
The test system of series [5] is Enterococcus faecalis J 14365/08. In words: Antibacterial microdilution broth MIC, E. faecalis. It counts as cell-based. As to conditions: 48 h incubation, read-out: MIC EF 48 h.
The subject of series [6] is Escherichia coli CCM 4517. In words: Antibacterial microdilution broth MIC, E. coli. It counts as cell-based. As to conditions: 48 h incubation, read-out: MIC EC 48 h.
Series [7] relates to Klebsiella pneumoniae D 11750/08. In words: Antibacterial microdilution broth MIC, K. pneumoniae. As to conditions: 48 h incubation.
A further series has as its system Candida glabrata 20/I. In words: Antifungal microdilution broth MIC, C. glabrata. It counts as cell-based. As to conditions: Nakaseomyces glabratus, 48 h incubation, read-out: MIC CG 48 h.
The test system of series [8] is Aspergillus fumigatus 231. In words: Antifungal microdilution broth MIC, A. fumigatus. It counts as cell-based. As to conditions: Aspergillus fumigatus, 231; 48 h incubation; read-out: MIC AF 48 h.
Another series concerns Candida krusei E28. The series is described as follows: Antifungal microdilution broth MIC, C. krusei. It counts as cell-based. As to conditions: Pichia kudriavzevii.
The subject of series [9] is yeasts (Candida sp., T. asahii). The series is described as follows: Antifungal activity against yeasts. It counts as cell-based. As to conditions: read-out: MIC for yeasts.
In series [10] the test system is Candida albicans ATCC 44859. In words: Antifungal microdilution broth MIC, C. albicans. It counts as cell-based.
Series [11] concerns Mycobacterium tuberculosis 331/88 (H37Rv). In words: In vitro antimycobacterial MIC, M. tuberculosis. It counts as cell-based.
In the next series the test system is M. kansasii 6509/96. In words: In vitro antimycobacterial MIC, M. kansasii clinical isolate. It counts as cell-based. As to conditions: Mycobacterium kansasii.
The test system of series [12] is Trichophyton interdigitale 445. In words: Antifungal microdilution broth MIC, T. interdigitale. It counts as cell-based.
Series [13] deals with Klebsiella pneumoniae D 11750/08.
Series [14] concerns Mycobacterium avium 330/88. In words: In vitro antimycobacterial MIC, M. avium. It counts as cell-based.
The next series relates to Trichosporon asahii 1188. The series is described as follows: Antifungal microdilution broth MIC, T. asahii. It counts as cell-based.
Series [15] deals with Lichtheimia corymbifera 272. The series is described as follows: Antifungal microdilution broth MIC, L. corymbifera. As to conditions: Lichtheimia corymbifera, 272; 48 h incubation; read-out: MIC LC 48 h. It counts as cell-based.
Another series concerns Candida tropicalis 156. In words: Antifungal microdilution broth MIC, C. tropicalis. It counts as cell-based.
Series [16] concerns Mycobacterium kansasii 235/80. The series is described as follows: In vitro antimycobacterial MIC, M. kansasii 235/80. It counts as cell-based.

Data on two compounds can be found in paper PMC6151383 (Molecules : A Journal of Synthetic Chemistry and Natural …, 2017).

≈ marks a conversion by molar mass, not a printed value. Like-named read-outs stand apart in the source and are kept apart here.

For Bacitracin [reference compound], the MIC in [1] is 31.25 µM; in series [2] (48 h incubation, read-out: MIC SA 48 h) it was 15.62 µM; in series [3], greater than 500 µM; in [5] it was 62.5 µM; in series [6] it was greater than 500 µM. Moreover, the “MIC KP-E 48 h” value in [4] (48 h incubation) was greater than 500 µM. For the same compound, the “MIC KP 48 h” value in series [7] is greater than 500 µM.
For the compound `O=S(=O)(Nc1ncccn1)c1ccc(N=Cc2cc(Cl)cc(Cl)c2O)cc1` [Compound 2m, 4-[(3,5-Dichloro-2-hydroxybenzylidene)amino]-N-(pyrimidin-2-yl)benzenesulfonamide], the MIC in [1] (Staphylococcus epidermidis, H6966/08) was 31.2 µM (≈ 13.2 µg/mL); in the series with Candida glabrata 20/I it was 31.2 µM (≈ 13.2 µg/mL); in series [8], 250 µM (≈ 106 µg/mL); with Candida krusei E28 (E28, 24 h, read-out: MIC CK 24 h) it was 62.5 µM (≈ 26.5 µg/mL); in the series on Candida krusei E28 (E28, 48 h, read-out: MIC CK 48 h), 62.5 µM (≈ 26.5 µg/mL); in series [9], 31.2 to 125 µM (≈ 13.2 to 52.9 µg/mL). In addition, the MIC in series [2] (Staphylococcus aureus, CCM4516, 24 h, read-out: MIC SA 24 h) turned out to be 62.5 µM (≈ 26.5 µg/mL); in series [2] (Staphylococcus aureus, CCM4516, 48 h, read-out: MIC SA 48 h), 62.5 µM (≈ 26.5 µg/mL); in series [10] (ATCC44859, 24 h, read-out: MIC CA 24 h) it was 62.5 µM (≈ 26.5 µg/mL); in series [10] (ATCC44859, 48 h, read-out: MIC CA 48 h), 62.5 µM (≈ 26.5 µg/mL); in [11] (336 h, 14 d incubation, read-out: MIC Mtb. 331/88 14 d), 125 µM (≈ 52.9 µg/mL); in series [11] (504 h, 21 d incubation, read-out: MIC Mtb. 331/88 21 d), 125 µM (≈ 52.9 µg/mL). Further, the MIC was determined as 62.5 µM (≈ 26.5 µg/mL) in the series on M. kansasii 6509/96 (6509/96, 168 h, 7 d incubation, read-out: MIC M. kansasii 6509/96 7 d); 125 µM (≈ 52.9 µg/mL) in the series with M. kansasii 6509/96 (6509/96, 336 h, 14 d incubation, read-out: MIC M. kansasii 6509/96 14 d); 250 µM (≈ 106 µg/mL) with M. kansasii 6509/96 (6509/96, 504 h, 21 d incubation, read-out: MIC M. kansasii 6509/96 21 d); 125 µM (≈ 52.9 µg/mL) in series [12] (Trichophyton interdigitale, 445, 72 h, read-out: MIC TI 72 h); 125 µM (≈ 52.9 µg/mL) in series [12] (Trichophyton interdigitale, 445, 120 h, read-out: MIC TI 120 h); 250 µM (≈ 106 µg/mL) in series [14] (330/88, 336 h, 14 d incubation, read-out: MIC M. avium 330/88 14 d). The MIC in [14] (330/88, 504 h, 21 d incubation, read-out: MIC M. avium 330/88 21 d) was 500 µM (≈ 212 µg/mL); in the series with Trichosporon asahii 1188 (Trichosporon asahii, 1188, 24 h, read-out: MIC TA 24 h), 62.5 µM (≈ 26.5 µg/mL); with Trichosporon asahii 1188 (Trichosporon asahii, 1188, 48 h, read-out: MIC TA 48 h) it was 62.5 µM (≈ 26.5 µg/mL); in series [15], 500 µM (≈ 212 µg/mL); in series [3] (Pseudomonas aeruginosa, CCM1961), greater than 500 µM; in series [5] (Enterococcus faecalis, J14365/08) it was greater than 500 µM. Moreover, the MIC in series [6] (Escherichia coli, CCM4517) is greater than 500 µM; with Candida tropicalis 156 (Candida tropicalis, 156, 24 h, read-out: MIC CT 24 h) it was 125 µM (≈ 52.9 µg/mL); with Candida tropicalis 156 (Candida tropicalis, 156, 48 h, read-out: MIC CT 48 h) it was 125 µM (≈ 52.9 µg/mL); in [16] (235/80, 168 h, 7 d incubation, read-out: MIC M. kansasii 235/80 7 d) it was 125 µM (≈ 52.9 µg/mL); in series [16] (235/80, 336 h, 14 d incubation, read-out: MIC M. kansasii 235/80 14 d), 250 µM (≈ 106 µg/mL); in [16] (235/80, 504 h, 21 d incubation, read-out: MIC M. kansasii 235/80 21 d) it was 500 µM (≈ 212 µg/mL). Besides, the “MIC KP 24 h” value in series [13] (24 h) is given as greater than 500 µM. In addition, in series [13] (48 h), the “MIC KP 48 h” value is listed as greater than 500 µM. The “MIC KP-E 24 h” value in series [4] (24 h) is reported as 500 µM (≈ 212 µg/mL). Also, in [4] (48 h), the “MIC KP-E 48 h” value came to 500 µM (≈ 212 µg/mL).
